The target in series [1] is T1, PI3Kα (Homo sapiens, UniProt P42336).
T1 construct: purchased Invitrogen
Put plainly: In vitro PI3Kα enzymatic assay (ADP-Glo / Kinase-Glo, ATP 25 μM). Type of series: biochemical. Particulars: ATP 25 μM. As for the experimental part:
To screen the inhibitory activity of the target compounds against PI3Kα, the Kinase-Glo™ assay with ATP at 25 μM was utilised with PIK-75 as positive control. We chose to explore the SARs at three positions on the Imidazo[1,2-a]pyridine core. To start with, a set of 8-position modifications were prepared while keeping the morpholinyl amide substituent on 2-position fixed, since it allowed quick structure − activity profiling via coupling reactions of bromide with aryl borates or boronic acids. […] We then turned our attention back to the phenyl substituents.
Briefly, the compound, PI3K enzyme (PI3Kα from Invitrogen), the PIP2 (Life Technologies) substrate, and ATP (25 μM, Sigma) were diluted in kinase buffer to the indicated concentrations. The assay plate was covered and incubated at room temperature for 1 h. Then, the Kinase-Glo reagent (Promega) was added to the PI3Kα plate to stop the reaction, mixed briefly with centrifuge, shaken slowly on the shaker and then equilibrate for 120 min. Finally, add Kinase detection reagent to each well, shake 1 min, equilibrate for 30 min before reading on a plate reader for luminescence. The data were collected on Envision and presented in Excel. IC50 values were calculated from the inhibition curves.
Background: In ADP-Glo the light output rises with the ADP produced.

In series [2] the test system is NCI-H1975. As to the kind of experiment: Cell proliferation assay (CellTiter-Glo), NCI-H1975. The class given is cell-based. The note with it: Homo sapiens, 72 h exposure, mean ± SD of two experiments. As for the experimental part:
(§1) Given the desirable enzyme activity profile, these compounds were further assayed for their antiproliferative activities against five independent human tumour cell line collections harbouring PIK3CA mutation, including human ovarian cancer cell line SKOV-3, human breast cancer T47D and MCF-7, human lung cancer H1975 and H460. […] In general, the cellular activity of tested derivatives corrected with their effects on kinase activity.
(§2) All target compounds were evaluated for antiproliferative potency against SKOV-3, T47D,NCI-H1975, NCI-H460,and MCF-7 tumour cell lines using a CellTiter-Glo® Luminescent Cell Viability Assay. The human tumour cell lines used were obtained from the ATCC or Shanghai ZhongQiaoXinZhou Biotech. All the mediums and FBS were Gibco. T47D, H1975 and NCI-H460 tumour cells were cultured in RPMI1640 medium supplemented with 10% FBS. SKOV-3 was cultured in McCoy’s 5 A medium supplemented with 10%FBS. The day before treatment with compounds, cells were seeded at a density of 2000 or 5000 in each well of a 96-well plate. The tumour cells were then treated with 3-fold serial diluted compound or DMSO control in the incubator at 37 °C and 5% CO2 for 3 days, prior to the addition of CellTiter-Glo reagents (Promega) and reading of luminescence using a PerkinElmer Envision plate reader. Data were analysed using GraphPad Prism 7.0.
Background: ATP-based viability assays read luminescence as a measure of living cells.

In series [3] the test system is NCI-H460. As to the kind of experiment: Cell proliferation assay (CellTiter-Glo), NCI-H460. The class given is cell-based. Particulars: Homo sapiens, 72 h exposure, mean ± SD of two experiments. As for the experimental part: as §1, §2
Series [4] relates to T47D cells. Put plainly: Apoptosis analysis, annexin V/7-AAD flow cytometry. Type of series: cell-based, human. Particulars: 50 μM, 24 h. As for the experimental part: Considering compound 35 was most sensitive in T47D cells, we decided to get some mechanistic insight into the mode of action in T47D cell line. As such, the annexin V/7-AAD staining and cell cycle phase distribution have been carried out. […] Furthermore, T47D cells were also treated with different concentrations of 35, and the percentage of apoptotic cells was measured.
For cell cycle analysis, T47D cell (1 × 10^6) were seeded in 6-well plates overnight and treated with different concentrations of compound 35 and DMSO control on the next day. After 24 h, the cells were collected by EDTA-free trypsinization, centrifuged at 1500 rpm for 5 min, and fixed in 75% ethanol at −20 °C for 1 h. The cells were then centrifuged at 2000 rpm for 5 min, resuspended in 500 µL PI/Rnase Staining Buffer, incubated for 30 min at room temperature, and analysed using flow cytometry. The data were analysed using Modfit software. For cell apoptosis analysis, T47D cell were seeded in 6 well-plates and treated with DMSO or compound 35 for 24 h. The treated cells were collected and washed with cold PBS for three times, resuspended in 185 µL binding buffer containing 5 μL Annexin V-FITC Apoptosis Detection Kit and 10 μL 7-AAD Viability Staining Solution for 15 min at room temperature in the dark. Apoptotic cells were analysed by flow cytometer.
A general note: A flow cytometer gives signals particle by particle.

Series [5] can be described thus: Parallel artificial membrane permeability assay (Egg-PAMPA). Type of series: in vitro ADME. The note with it: incubation 4 h; for Papp at 4 h, 10 μM: PAMPA. As for the experimental part: 10.0 μM donor solution (5% DMSO) was prepared by diluting of working solution with PBS. The donor solution was added to each well of the donor plate, whose PVDF membrane was precoated with 5 µL of 1% lecithin/dodecane mixture. Duplicates were prepared.Then, PBS was added to each well of the PTFE acceptor plate. The donor plate and acceptor plate were combined and incubated for 4 h at room temperature with shaking at 300 rpm. Acceptor samples and donor samples were prepared and analysed by LC-MS/MS.

Results on 1 compound are retold here after paper PMC9858543, “Design, synthesis and evaluation of 2, 6, 8-substituted Imidazopyridine derivatives as potent PI3Kα inhibitors” (Journal of Enzyme Inhibition and Medicinal Chemistry, 2023).

Read-outs that look alike come from different tables or passages of the source.

T1 sequence (P42336 whole entry): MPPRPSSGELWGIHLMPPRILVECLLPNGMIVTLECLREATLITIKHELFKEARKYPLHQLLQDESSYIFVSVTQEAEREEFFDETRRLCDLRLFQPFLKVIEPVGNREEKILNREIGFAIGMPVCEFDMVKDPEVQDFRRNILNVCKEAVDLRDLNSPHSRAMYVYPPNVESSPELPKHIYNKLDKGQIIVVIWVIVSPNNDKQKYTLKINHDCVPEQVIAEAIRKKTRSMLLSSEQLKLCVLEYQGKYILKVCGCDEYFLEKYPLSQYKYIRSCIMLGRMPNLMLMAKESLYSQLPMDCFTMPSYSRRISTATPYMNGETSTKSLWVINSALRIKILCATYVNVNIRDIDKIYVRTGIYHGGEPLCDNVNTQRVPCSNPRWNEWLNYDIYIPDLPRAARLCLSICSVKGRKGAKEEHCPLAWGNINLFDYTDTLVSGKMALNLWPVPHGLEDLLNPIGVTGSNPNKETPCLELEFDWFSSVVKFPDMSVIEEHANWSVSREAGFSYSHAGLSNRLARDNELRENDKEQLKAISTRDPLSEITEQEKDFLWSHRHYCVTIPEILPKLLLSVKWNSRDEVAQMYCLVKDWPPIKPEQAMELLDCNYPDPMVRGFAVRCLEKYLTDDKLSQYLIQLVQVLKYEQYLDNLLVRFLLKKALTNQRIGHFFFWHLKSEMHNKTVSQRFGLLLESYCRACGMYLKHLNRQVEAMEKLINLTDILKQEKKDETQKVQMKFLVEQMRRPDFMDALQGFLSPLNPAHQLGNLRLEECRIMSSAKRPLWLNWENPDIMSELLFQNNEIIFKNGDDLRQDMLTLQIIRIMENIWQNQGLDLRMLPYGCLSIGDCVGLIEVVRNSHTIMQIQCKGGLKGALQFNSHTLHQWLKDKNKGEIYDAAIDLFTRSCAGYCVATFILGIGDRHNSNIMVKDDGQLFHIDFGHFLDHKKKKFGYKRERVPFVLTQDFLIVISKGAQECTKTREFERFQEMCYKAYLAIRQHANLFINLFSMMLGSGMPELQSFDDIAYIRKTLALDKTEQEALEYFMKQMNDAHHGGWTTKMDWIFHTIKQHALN
T1 sequence (P27986 whole entry partner): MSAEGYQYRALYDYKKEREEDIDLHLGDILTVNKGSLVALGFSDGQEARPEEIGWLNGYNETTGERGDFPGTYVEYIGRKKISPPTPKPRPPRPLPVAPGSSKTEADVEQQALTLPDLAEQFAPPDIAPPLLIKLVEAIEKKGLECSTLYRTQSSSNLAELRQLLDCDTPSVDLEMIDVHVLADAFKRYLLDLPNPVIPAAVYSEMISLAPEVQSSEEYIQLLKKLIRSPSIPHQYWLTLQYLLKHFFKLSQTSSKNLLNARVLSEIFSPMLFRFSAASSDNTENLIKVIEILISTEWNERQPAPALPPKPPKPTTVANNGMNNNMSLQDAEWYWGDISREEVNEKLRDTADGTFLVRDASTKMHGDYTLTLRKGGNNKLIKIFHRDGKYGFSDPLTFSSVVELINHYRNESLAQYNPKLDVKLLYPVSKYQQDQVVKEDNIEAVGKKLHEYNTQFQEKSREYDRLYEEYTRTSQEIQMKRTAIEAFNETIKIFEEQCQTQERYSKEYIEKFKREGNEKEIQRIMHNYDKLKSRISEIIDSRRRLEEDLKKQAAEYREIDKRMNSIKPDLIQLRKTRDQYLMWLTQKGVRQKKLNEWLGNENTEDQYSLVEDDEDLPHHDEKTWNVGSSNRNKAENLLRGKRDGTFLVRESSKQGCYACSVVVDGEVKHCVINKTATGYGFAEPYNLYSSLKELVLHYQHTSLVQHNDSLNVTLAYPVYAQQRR

The IC50 is the concentration at which inhibition is half-maximal. A lower IC50 goes with greater potency. As usually defined, the inhibition is the share of the control response that was lost under treatment. For `COc1ncc(-c2cc(C)cn3cc(C(=O)N4CCCC4)nc23)cc1NS(=O)(=O)c1ccc(F)cc1` [Compound 35, 4-Fluoro-N-(2-methoxy-5–(6-methyl-2-(pyrrolidine-1-carbonyl)Imidazo[1,2-a]pyridin-8-yl)pyridin-3-yl)benzenesulfonamide], the IC50 stood at 0.15 ± 0.02 µM in series [1] (mean ± SD of two experiments), 32.1 ± 2.4 µM in series [2] and 17.7 ± 2 µM in series [3]. In series [1] (PI3Kα, compound 10 μM, mean ± SD of three determinations, read-out: % Inhibition at 10 μM), the inhibition at 10 µM was over 85%. The “Q2 cells (late apoptosis), annexin V/7-AAD” value in series [4] was 21.8%. Moreover, the “Q3 cells (early apoptosis), annexin V/7-AAD” value in series [4] is 1.51%. The “Mean Pe” value in series [5] (10 μM) is “higher than 10 nm/s”. For the same compound, the Papp at 4 h, 10 μM in series [5] (read-out: Mean Pe) is 1.54 ×10⁻⁶ cm/s; in series [5] (read-out: Permeability), over 1 ×10⁻⁶ cm/s.
